From patent US20240101542A1, “ERAP INHIBITORS” (UNIVERSITE DE LILLE, priority 2020, published 2024) come the findings set out here.

One assay addresses ERAP1 (Homo sapiens (Human), UniProt Q9NZ08). The experiment in a line: In vitro ERAP activity assay, ERAP1 with L-AMC substrate. Type of assay: biochemical. The note with it: L-AMC as substrate; read-out: IC50 on ERAP1 or ERAAP using L-AMC as substrate. The method, then:
(§1) The enzymatic activity of ERAP1 or 2 was assayed using L-AMC (L-Leucine-7-amido-4-methylcoumarin hydrochloride) or R-AMC (L-Arginine-7-amido-4-methylcoumarin hydrochloride) respectively. Hepes at 50 mM with 100 mM NaCl at pH 7 was used as buffer. Briefly, 60 nL of test compounds were added in 384-wells plates (dark, non-binding surface) by acoustic dispensing with nanoacoustic dispenser Echo (Labcyte) and pre-incubated 30 minutes at ambient temperature with 10 μL of ERAP 0.8 μg/mL or 1 μg/mL or vehicle. The reaction was then started with the addition of 10 μL of substrate at 10 μM. The final concentration of ERAP, substrate and DMSO was 0.5 μg/mL, 5 μM and 0.4% respectively. For the kinetic readout a Victor 3V (Perkin-Elmer) was used with excitation at 380 nm and emission at 450 nm. The fluorescence was measured each 3 minutes during one hour.
(§2) The Z and Z′ factors were calculated according to J.-H. Zhang, T. D. Y. Chung, K. R. Oldenburg, A Simple Statistical Parameter for Use in Evaluation and Validation of High Throughput Screening Assays, J. Biomol. Screen., 4 (1999) 67-73. Data analysis was performed using Xlfit® v 5.0 or GraphPad Prism® v 4.0.
(§3) Percentages of inhibition at different concentrations were obtained as described above and IC50s were carried out as 8-point dose response curves and reported as the average of at least three independent measurements. […] Data analysis was performed using Xlfit® v 5.0 or GraphPad Prism® v 4.0. Nonlinear curve fitting and statistical analysis was done using built-in functions.

For another assay, the target named is ERAP2 (Homo sapiens (Human), UniProt Q6P179). The experiment in a line: In vitro ERAP activity assay, ERAP2 with R-AMC substrate. Type of assay: biochemical. More on the design: IC50 on ERAP2 using R-AMC as substrate: scale not given here. The note with it: R-AMC as substrate; for IC50: read-out: IC50 on ERAP2 using R-AMC as substrate. Here is the method: as §1, §2, §3
Sequence of ERAP2 (Q6P179 whole entry): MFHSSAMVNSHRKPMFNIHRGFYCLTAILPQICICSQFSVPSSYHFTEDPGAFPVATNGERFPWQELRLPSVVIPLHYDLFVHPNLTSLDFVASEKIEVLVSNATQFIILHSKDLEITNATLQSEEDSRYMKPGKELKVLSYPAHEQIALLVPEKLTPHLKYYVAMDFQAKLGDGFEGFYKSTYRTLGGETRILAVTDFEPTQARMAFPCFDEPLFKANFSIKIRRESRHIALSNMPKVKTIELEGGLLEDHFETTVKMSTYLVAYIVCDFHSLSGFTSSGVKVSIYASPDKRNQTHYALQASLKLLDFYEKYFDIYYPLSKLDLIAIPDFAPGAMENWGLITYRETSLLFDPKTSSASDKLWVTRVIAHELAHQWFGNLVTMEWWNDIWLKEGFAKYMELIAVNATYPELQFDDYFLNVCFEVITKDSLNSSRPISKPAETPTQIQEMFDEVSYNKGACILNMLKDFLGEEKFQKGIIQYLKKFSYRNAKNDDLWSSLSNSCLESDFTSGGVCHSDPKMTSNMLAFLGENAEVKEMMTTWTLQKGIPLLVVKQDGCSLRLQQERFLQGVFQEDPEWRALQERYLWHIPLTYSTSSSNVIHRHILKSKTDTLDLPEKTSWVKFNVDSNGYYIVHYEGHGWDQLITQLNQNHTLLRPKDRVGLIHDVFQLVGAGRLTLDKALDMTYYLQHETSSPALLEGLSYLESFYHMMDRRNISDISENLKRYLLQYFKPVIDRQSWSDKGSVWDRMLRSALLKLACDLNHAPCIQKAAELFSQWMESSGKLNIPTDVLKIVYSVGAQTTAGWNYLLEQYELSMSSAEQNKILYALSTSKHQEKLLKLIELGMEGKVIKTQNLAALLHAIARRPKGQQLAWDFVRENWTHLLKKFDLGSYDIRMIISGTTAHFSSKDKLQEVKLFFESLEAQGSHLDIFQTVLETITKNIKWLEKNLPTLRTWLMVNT

Each structure is given as a SMILES string.

Sequence of ERAP1 (Q9NZ08 whole entry): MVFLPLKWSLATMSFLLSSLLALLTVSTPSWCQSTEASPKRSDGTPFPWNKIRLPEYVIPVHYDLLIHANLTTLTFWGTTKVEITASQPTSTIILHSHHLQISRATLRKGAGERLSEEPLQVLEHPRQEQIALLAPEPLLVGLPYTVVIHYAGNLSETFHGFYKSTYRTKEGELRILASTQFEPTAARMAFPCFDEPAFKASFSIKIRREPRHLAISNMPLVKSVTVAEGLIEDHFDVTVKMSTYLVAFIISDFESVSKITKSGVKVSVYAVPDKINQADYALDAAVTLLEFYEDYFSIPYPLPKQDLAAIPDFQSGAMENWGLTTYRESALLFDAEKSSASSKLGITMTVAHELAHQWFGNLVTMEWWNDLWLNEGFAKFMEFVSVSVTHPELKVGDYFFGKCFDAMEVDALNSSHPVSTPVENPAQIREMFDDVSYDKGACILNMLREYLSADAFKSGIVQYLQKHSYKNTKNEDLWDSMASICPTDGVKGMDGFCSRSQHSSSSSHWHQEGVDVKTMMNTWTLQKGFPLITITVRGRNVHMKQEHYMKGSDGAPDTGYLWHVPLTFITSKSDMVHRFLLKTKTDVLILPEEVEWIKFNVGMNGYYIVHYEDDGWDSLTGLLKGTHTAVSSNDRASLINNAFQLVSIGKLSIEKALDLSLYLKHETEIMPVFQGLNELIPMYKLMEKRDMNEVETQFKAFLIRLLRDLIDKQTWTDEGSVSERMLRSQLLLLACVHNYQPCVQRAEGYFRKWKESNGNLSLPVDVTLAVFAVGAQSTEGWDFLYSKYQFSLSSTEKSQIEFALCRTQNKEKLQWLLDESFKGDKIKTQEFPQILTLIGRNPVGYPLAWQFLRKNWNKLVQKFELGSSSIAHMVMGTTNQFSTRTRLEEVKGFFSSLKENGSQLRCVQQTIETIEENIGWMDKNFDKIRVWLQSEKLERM

Broadly, the IC50 is the point on the concentration scale where inhibition reaches its midpoint. Consider `COc1cccc(C[C@@H](C(=O)NO)n2cc(CNS(=O)(=O)c3ccc(-c4ccccn4)s3)nn2)c1` [Compound 49], for which the IC50 is > 5 µM at ERAP1 and < 0.5 µM at ERAP2.

In the case of `COc1ccc(C[C@@H](C(=O)NO)n2cc(CNS(=O)(=O)c3ccc(-c4ccccc4)s3)nn2)cc1OC` [Compound 42], the IC50 on ERAP1 and on ERAP2 was < 0.5 µM throughout.

For `CNC(=O)c1ccc(-c2ccc(S(=O)(=O)NCc3cn([C@@H](Cc4ccc(OC)cc4)C(=O)NO)nn3)s2)cc1` [Compound 28], the IC50 at ERAP1 was < 5 µM; on ERAP2, < 0.5 µM.

`O=C(NO)[C@H](Cc1ccc(O)c(Cl)c1)n1cc(CNS(=O)(=O)c2ccc(-c3ccccn3)s2)nn1` [Compound 39]: the IC50 on ERAP1 is < 5 µM; at ERAP2 it was < 0.5 µM.

Regarding `COc1ccc(C[C@@H](C(=O)NO)n2cc(C3CCCCN3S(=O)(=O)c3ccc(-c4ccccc4)s3)nn2)cc1` (stereo partly shown) [Compound 58], the IC50 at ERAP1 is < 5 µM; on ERAP2, > 5 µM.

With `N#Cc1ccc(C[C@@H](C(=O)NO)n2cc(CNS(=O)(=O)c3ccc(-c4ccccc4)s3)nn2)cc1` [Compound 60], the IC50 on ERAP1 was < 5 µM; on ERAP2, < 0.5 µM.

As for `O=C(NO)[C@H](Cc1c[nH]c2ccccc12)n1cc(CNS(=O)(=O)c2ccc(Br)s2)nn1` [Compound 5], the half-maximal inhibitory concentration (IC50) on ERAP1 is > 5 µM. For the same molecule, the “IC50 on ERAP2 using R-AMC as substrate” value on ERAP2 is given as “+ +”.

`O=C(NO)[C@H](Cc1ccc(O)c(F)c1)n1cc(CNS(=O)(=O)c2ccc(-c3ccccn3)s2)nn1` [Compound 44]: the IC50 on ERAP1 was > 5 µM; on ERAP2 it was < 0.5 µM.

Turning to `O=C(NO)[C@@H](Cc1ccc(O)cc1)n1cc(CNS(=O)(=O)c2ccc(-c3ccccn3)s2)nn1` [Compound 20], at ERAP1, the concentration for half-maximal inhibition (IC50) was > 5 µM. Besides, the “IC50 on ERAP2 using R-AMC as substrate” value on ERAP2 was “+ +”.

`O=C(NO)[C@H](Cc1ccc(O)cc1)n1cc(CNS(=O)(=O)c2ccc(-c3ccccn3)s2)nn1` [Compound 19]: the IC50 at ERAP1 was > 5 µM. Further, at ERAP2, the “IC50 on ERAP2 using R-AMC as substrate” value is “+ +”.

As for `COc1ccc(C[C@@H](C(=O)NO)n2cc(CNS(=O)(=O)c3cnc(-c4ccccc4)s3)nn2)cc1` [Compound 56], the IC50 is < 5 µM on ERAP1 and < 0.5 µM at ERAP2.
